This note sets out measurements from ChEMBL document CHEMBL5465560, “Selectivity Literature for EUbOPEN Chemogenomic Library” (2024).

Assay [1] addresses T1, Mitogen-activated protein kinase kinase kinase 7 (Homo sapiens) (UniProt O43318).
T1 sequence (whole entry): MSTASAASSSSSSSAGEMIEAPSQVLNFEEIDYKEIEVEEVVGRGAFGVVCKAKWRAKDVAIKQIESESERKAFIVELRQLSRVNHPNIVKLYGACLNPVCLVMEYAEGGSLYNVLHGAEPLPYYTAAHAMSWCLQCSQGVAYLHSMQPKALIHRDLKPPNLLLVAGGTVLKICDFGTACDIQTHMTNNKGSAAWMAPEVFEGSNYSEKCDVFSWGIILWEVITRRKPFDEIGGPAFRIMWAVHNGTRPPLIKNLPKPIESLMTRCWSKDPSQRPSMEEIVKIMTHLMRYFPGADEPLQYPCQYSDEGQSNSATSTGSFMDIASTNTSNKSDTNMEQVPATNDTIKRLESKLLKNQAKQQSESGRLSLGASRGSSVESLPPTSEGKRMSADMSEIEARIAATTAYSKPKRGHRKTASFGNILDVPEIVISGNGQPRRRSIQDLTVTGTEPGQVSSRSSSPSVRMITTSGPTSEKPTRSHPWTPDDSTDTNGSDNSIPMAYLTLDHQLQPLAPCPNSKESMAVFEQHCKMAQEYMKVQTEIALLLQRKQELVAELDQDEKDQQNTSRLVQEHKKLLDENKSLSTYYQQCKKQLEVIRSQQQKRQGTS
The assay is described as follows: Selectivity interaction (LanthaScreen Eu Kinase Binding Assay) EUB0001632a MAP3K7. Particulars: at 10 µM. In general terms: Time-resolved FRET reads energy transfer from a long-lived donor to a nearby acceptor.

Assay [2] concerns Mast/stem cell growth factor receptor Kit (Homo sapiens), P10721 [V559D]. Description: (§1) Selectivity interaction (KinomeScan (DiscoverX)) EUB0000595a KIT. Conditions: at 10 µM.
The test system of assay [3] is Mast/stem cell growth factor receptor Kit (Homo sapiens), P10721 [D816H]. The assay is described as §1. Particulars: at 10 µM.
Assay [4] has as its system Mast/stem cell growth factor receptor Kit (Homo sapiens), P10721 [V559D,V654A]. The description is as §1. Conditions: at 10 µM.
The test system of assay [5] is Mast/stem cell growth factor receptor Kit (Homo sapiens), P10721 [V559D,T670I]. The assay is described as §1. Conditions: at 10 µM.
Assay [6] relates to Mast/stem cell growth factor receptor Kit (Homo sapiens), P10721 [L576P]. Described as §1. Conditions: at 10 µM.
The test system of assay [7] is Mast/stem cell growth factor receptor Kit (Homo sapiens), P10721 [D816V]. The assay is described as §1. Conditions: at 10 µM.
The target of assay [8] is Serine/threonine-protein kinase/endoribonuclease IRE1 (Homo sapiens) (UniProt O75460). The assay is described as follows: Selectivity interaction (ActivX KiNativ screen (ex vivo kinase selectivity in human PBMCs)) EUB0001619a ERN1. The assay is classed as cell-based. Particulars: PBMC, at 1 µM.
Assay [9] concerns the target T2, Muscle, skeletal receptor tyrosine-protein kinase (Homo sapiens) (UniProt O15146).
T2 sequence (whole entry): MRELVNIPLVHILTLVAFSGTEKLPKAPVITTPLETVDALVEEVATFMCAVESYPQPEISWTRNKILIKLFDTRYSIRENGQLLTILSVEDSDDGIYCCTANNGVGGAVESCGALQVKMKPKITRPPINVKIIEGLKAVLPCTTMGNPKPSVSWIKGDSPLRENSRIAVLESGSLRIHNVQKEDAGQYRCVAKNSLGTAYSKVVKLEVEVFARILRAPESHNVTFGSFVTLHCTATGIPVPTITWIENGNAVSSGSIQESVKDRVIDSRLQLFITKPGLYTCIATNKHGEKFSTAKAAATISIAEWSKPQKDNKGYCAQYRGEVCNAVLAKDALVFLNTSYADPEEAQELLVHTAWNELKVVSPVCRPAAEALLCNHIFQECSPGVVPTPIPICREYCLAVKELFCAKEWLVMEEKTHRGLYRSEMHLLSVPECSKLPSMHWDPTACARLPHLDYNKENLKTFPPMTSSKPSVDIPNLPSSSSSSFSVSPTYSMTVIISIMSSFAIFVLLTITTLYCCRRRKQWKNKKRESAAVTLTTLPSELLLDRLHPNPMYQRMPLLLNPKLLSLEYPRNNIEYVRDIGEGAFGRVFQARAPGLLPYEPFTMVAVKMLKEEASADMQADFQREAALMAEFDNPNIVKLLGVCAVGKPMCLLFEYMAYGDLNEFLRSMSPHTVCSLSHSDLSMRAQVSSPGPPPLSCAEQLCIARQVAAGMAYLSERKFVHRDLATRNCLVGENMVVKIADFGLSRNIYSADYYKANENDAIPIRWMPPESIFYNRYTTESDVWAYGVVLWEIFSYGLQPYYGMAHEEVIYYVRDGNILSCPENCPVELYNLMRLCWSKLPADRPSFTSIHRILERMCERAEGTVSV
Particulars: at 10 µM.

For assay [10], the target named is Casein kinase I isoform delta (Homo sapiens, UniProt P48730). Description: Selectivity interaction (KinomeScan (DiscoverX)) EUB0001049a CSNK1D. Conditions: at 1 µM.
The target in assay [11] is Mitogen-activated protein kinase kinase kinase kinase 4 (Homo sapiens, UniProt O95819). The assay is described as follows: Selectivity interaction (KinomeScan (DiscoverX)) EUB0001049a MAP4K4. Particulars: at 1 µM.
The target of assay [12] is Leucine-rich repeat serine/threonine-protein kinase 2 (Homo sapiens, UniProt Q5S007). Description: (§2) Selectivity interaction (KinomeScan (DiscoverX)) EUB0001049a LRRK2. Particulars: at 1 µM.
Assay [13] relates to Leucine-rich repeat serine/threonine-protein kinase 2 (Homo sapiens), Q5S007 [G2019S]. Described as §2. Conditions: at 1 µM.
Assay [14] addresses Eukaryotic translation initiation factor 2-alpha kinase 1 (Homo sapiens) (UniProt Q9BQI3). Description: Selectivity interaction (KinomeScan (DiscoverX)) EUB0000655a EIF2AK1. Conditions: at 10 µM.
Assay [15] addresses T3, Dual specificity mitogen-activated protein kinase kinase 7 (Homo sapiens) (UniProt O14733).
T3 sequence (whole entry): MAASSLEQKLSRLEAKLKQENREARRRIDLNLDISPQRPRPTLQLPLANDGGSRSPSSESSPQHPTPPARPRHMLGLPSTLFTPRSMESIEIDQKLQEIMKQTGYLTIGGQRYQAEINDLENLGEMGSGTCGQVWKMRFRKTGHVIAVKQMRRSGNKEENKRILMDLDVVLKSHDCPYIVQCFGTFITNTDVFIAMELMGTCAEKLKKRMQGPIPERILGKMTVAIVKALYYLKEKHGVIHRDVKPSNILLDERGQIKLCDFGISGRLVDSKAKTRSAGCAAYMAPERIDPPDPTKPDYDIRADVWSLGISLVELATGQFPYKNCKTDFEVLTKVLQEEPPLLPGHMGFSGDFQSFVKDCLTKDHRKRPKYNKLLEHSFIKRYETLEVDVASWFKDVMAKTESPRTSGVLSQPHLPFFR
The assay is described as follows: Selectivity interaction (KinomeScan (DiscoverX)) EUB0000229b MAP2K7. Conditions: at 10 µM.

Sequence of Mast/stem cell growth factor receptor Kit (Homo sapiens), P10721 [L576P] (P10721 whole entry L576P): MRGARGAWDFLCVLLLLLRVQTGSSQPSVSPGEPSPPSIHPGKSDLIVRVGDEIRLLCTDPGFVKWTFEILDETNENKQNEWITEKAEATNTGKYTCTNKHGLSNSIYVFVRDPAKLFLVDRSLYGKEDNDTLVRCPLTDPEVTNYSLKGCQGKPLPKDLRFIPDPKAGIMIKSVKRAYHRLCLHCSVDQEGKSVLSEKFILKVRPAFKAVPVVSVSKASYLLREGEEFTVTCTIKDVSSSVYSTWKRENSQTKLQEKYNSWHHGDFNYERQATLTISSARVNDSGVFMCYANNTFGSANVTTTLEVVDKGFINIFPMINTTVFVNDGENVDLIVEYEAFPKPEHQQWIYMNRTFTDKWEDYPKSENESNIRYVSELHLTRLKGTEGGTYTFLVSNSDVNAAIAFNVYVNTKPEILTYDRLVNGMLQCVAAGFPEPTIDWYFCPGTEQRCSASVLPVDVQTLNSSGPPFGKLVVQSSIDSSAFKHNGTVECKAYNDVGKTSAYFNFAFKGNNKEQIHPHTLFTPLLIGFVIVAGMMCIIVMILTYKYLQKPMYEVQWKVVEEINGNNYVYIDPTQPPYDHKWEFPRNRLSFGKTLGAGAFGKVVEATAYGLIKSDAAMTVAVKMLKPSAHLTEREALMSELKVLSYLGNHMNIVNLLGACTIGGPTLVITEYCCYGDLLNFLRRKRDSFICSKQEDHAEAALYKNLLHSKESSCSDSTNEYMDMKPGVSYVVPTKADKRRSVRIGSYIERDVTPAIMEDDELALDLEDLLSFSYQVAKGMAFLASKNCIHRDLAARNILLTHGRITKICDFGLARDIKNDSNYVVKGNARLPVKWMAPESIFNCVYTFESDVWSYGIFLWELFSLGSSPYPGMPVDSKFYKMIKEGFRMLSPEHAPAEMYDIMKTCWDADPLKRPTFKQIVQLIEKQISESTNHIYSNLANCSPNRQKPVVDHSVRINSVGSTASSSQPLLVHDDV
Sequence of Mast/stem cell growth factor receptor Kit (Homo sapiens), P10721 [D816V] (P10721 whole entry D816V): as the sequence (P10721 whole entry L576P) above, with P576L, D816V counted along it
Sequence of Leucine-rich repeat serine/threonine-protein kinase 2 (Q5S007 whole entry): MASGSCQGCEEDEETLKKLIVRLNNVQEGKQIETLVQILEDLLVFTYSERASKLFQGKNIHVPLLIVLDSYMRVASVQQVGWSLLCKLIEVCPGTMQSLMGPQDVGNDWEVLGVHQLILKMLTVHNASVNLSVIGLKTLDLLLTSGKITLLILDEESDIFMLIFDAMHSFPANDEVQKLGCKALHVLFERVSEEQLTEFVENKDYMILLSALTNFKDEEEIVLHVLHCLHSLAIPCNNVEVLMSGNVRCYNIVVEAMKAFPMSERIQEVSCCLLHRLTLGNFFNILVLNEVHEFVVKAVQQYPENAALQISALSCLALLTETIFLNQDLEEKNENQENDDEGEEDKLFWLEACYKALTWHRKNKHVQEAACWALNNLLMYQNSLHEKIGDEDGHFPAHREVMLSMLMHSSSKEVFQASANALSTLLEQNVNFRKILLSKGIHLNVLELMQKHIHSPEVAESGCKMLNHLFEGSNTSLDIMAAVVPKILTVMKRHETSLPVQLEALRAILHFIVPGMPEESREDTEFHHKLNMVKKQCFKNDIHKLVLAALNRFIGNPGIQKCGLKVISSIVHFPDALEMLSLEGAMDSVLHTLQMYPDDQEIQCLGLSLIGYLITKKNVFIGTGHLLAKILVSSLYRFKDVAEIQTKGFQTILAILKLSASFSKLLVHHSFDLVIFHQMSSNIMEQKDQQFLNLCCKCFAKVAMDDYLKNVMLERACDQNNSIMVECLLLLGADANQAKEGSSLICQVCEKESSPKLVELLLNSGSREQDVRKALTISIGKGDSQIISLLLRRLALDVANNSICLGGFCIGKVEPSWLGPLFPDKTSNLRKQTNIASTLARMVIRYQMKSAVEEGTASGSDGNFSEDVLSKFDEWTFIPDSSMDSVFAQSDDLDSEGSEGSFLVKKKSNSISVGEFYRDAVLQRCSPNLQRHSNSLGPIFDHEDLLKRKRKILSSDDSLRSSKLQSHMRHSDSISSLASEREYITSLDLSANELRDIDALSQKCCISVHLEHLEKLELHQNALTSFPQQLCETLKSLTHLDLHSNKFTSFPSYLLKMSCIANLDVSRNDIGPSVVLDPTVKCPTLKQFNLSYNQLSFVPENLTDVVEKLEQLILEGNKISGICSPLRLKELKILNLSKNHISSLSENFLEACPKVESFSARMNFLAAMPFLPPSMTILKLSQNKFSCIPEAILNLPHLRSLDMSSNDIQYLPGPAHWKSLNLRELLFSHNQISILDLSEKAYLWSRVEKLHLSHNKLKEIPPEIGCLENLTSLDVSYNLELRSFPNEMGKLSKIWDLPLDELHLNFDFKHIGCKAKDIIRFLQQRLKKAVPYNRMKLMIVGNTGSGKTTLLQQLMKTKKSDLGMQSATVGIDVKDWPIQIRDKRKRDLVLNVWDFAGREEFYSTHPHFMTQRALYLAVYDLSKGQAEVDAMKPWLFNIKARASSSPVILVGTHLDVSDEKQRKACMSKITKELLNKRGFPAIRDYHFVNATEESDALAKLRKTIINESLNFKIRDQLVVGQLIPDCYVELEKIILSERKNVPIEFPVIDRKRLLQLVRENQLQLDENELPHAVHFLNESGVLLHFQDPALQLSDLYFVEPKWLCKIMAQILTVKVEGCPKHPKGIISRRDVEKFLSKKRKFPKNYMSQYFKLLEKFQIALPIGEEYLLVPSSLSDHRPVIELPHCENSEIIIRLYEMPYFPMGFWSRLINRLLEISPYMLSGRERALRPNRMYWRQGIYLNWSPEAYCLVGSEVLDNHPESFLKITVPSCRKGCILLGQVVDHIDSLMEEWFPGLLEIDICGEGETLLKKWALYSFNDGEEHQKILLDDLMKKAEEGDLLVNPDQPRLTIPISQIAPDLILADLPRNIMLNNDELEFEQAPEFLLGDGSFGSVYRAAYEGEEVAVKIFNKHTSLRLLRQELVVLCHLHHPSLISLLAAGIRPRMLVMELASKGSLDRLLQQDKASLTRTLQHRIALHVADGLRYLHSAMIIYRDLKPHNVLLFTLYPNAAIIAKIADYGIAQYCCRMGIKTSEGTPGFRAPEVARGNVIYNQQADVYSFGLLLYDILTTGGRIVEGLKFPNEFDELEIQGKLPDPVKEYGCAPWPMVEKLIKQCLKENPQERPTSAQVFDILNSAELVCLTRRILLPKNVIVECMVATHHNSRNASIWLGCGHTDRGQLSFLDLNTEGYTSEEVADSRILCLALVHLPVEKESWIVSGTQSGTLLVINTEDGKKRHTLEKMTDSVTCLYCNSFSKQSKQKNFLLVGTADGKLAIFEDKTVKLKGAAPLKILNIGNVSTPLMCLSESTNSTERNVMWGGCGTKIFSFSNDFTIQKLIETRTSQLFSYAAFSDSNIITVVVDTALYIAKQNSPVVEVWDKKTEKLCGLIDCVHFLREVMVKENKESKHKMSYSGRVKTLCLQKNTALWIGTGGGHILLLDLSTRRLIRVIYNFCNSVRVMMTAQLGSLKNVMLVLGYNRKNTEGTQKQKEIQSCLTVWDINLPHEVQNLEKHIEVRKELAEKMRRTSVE
Sequence of Casein kinase I isoform delta (P48730 whole entry, looked up, canonical isoform): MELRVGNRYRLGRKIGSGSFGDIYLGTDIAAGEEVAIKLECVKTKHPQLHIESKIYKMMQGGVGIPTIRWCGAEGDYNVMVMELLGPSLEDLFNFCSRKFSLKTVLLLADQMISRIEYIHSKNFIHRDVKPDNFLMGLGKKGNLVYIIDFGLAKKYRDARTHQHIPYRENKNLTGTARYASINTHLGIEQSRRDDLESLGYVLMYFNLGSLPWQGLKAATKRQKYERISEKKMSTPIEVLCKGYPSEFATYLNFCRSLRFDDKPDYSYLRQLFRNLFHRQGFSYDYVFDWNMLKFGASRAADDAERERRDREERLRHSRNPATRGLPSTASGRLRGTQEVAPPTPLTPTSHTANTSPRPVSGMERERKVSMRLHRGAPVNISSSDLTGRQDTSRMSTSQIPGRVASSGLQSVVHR

`Cn1cc(-n2cnc3c(NCc4nc5cc(Cl)c(Cl)cc5[nH]4)nc(N4CCOCC4)nc32)cn1`: the % of inhibition in assay [1] is -112%.
As to `COCC(=O)NC/C=C/c1ccc2ncnc(Nc3ccc(Oc4ccc(C)nc4)c(C)c3)c2c1` [CP-724714], the % of control in assay [2] came out at 17%; in assay [3], 100%; in assay [4] it was 88%; in [5], 100%; in [6], 54%; in assay [7] it was 89%.
Regarding `N#Cc1cccc(-c2c[nH]c3ncnc(N4CCOCC4)c23)c1`, in [8], the % of inhibition was determined as 2%.
Consider `Cc1cc([C@@H](C)Nc2ccccc2C(=O)O)c2nc(N3CCOCC3)cc(=O)n2c1` [AZD-6482], for which the % of control in assay [9] was determined as 100%.
With `COc1cc(Nc2nc(C)cc(-c3cnn4nc(OC)ccc34)n2)cc(C(F)(F)F)c1`, the % of control in assay [10] is 90%; in assay [11] it was 99%; in assay [12] it was 100%; in assay [13], 100%.
`CN(C)CCOc1ccc(-c2nc(-c3ccncc3)c(-c3ccc4c(c3)CC/C4=N\O)[nH]2)cc1` registered a % of control in assay [14] of 58%.
For the molecule `COc1cc(N(C)c2ccnc3ccc(C(F)(F)F)cc23)cc(OC)c1OC`, the % binding in assay [15] stood at 83%.
